Measurements: ChEMBL document CHEMBL1201862, “PubChem BioAssay data set” (2004)
Active and inactive are the calls of the source.

Tests used:
cells [1] = assay type: functional, cell-based
[2] = molecular target: T1, Nuclear receptor subfamily 0 group B member 1 (Homo sapiens, UniProt P51843); assay type: functional, cell-based;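 also: HEK293T cells transfected with SF-1 and DAX-1 plus StAR promoter luciferase reporter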
T1 sequence (P51843 whole entry): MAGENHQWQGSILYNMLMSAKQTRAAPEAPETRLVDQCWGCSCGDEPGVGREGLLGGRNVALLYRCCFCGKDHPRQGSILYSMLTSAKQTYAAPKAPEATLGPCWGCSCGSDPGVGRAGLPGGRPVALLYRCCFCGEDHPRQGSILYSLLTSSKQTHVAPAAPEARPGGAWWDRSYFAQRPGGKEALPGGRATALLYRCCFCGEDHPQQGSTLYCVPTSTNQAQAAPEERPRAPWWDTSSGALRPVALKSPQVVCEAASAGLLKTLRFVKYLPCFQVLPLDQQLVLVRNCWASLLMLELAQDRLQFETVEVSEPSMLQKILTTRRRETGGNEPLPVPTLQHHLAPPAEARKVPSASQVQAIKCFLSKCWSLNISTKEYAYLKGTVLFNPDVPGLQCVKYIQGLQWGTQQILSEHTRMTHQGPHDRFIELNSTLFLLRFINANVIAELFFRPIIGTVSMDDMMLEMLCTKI

Vero [3] = experiment: Vero cell toxicity, dose response, cytotoxicity control, plate reader, cherry-pick samples (AID 687020); assay type: functional, cell-based; conditions: Chlorocebus sabaeus
[4] = molecular target: T2, Sentrin-specific protease 1 (Homo sapiens, UniProt Q9P0U3); experiment: Dose response confirmation of small molecule inhibitors of the catalytic domain of the SUMO protease, SENP1 in a FRET assay.; assay type: functional; conditions: read-out: IC50_Mean
T2 sequence (Q9P0U3 whole entry): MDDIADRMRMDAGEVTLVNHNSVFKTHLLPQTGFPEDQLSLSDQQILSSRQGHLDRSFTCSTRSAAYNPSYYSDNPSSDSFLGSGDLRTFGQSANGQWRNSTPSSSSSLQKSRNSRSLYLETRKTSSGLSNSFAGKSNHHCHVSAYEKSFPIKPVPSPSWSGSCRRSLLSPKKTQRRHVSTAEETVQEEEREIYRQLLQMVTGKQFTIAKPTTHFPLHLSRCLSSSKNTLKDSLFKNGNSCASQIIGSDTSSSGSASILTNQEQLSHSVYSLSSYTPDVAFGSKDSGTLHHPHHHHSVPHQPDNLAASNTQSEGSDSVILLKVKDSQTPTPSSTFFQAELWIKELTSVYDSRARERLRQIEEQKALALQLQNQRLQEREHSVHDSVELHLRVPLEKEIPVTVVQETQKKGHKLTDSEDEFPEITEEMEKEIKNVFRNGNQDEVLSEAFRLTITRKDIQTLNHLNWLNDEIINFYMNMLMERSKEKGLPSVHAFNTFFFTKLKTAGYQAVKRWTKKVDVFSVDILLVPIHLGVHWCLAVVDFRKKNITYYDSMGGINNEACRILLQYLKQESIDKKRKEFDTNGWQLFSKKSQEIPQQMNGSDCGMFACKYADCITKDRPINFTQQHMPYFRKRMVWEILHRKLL

[5] = molecular target: T2, Sentrin-specific protease 1; experiment: potency of human SENP1 inhibitors, dose response, biochemical, kinetic FRET (AID 651697); assay type: functional; conditions: read-out: IC50_Mean
cells [6] = assay type: functional, cell-based; remark: listed apart in the source
cells [7] = assay type: functional, cell-based; remark: listed apart in the source
[8] = molecular target: T3, Trace amine-associated receptor 1 (Homo sapiens, UniProt Q96RJ0); experiment: Counterscreen for agonists of the human trace amine associated receptor 1 (hTAAR1): Fluorescence-based cell-based high throughput dose response assay to identify hTAAR1 agonist that also desensitize TAAR1 receptor response.; assay type: functional
T3 sequence (Q96RJ0 whole entry): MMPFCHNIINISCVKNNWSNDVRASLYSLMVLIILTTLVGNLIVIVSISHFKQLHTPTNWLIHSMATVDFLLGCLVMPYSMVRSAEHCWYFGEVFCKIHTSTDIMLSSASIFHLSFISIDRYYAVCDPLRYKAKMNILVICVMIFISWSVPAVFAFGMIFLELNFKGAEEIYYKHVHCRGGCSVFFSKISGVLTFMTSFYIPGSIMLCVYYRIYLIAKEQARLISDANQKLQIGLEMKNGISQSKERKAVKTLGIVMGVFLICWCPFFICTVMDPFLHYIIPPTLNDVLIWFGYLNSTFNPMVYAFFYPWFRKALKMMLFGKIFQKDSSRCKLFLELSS

[9] = molecular target: T3, Trace amine-associated receptor 1; experiment: Fluorescence-based cell-based high throughput dose response assay to identify agonists of the human trace amine associated receptor 1 (TAAR1).; assay type: functional
[10] = molecular target: T4, Small ubiquitin-related modifier 1 (Homo sapiens, UniProt P63165); experiment: inhibitors of SUMO1 partner interactions, dose response, biochemical, FRET (AID 624383); assay type: functional; conditions: read-out: IC50_Mean
[11] = molecular target: T4, Small ubiquitin-related modifier 1; experiment: inhibitors of SUMO1 peptide binding, dose response, biochemical, fluorescence polarization, uHTS hits (AID 624382); assay type: functional; conditions: read-out: IC50_Mean
[12] = Luminescence Cell-Based Dose Retest to Confirm Inhibitors of Cancer Stem Cells. [Related pubchem assays (depositor defined):AID2717, AID2721]; assay type: functional; conditions: Homo sapiens
[13] = HeLa cell cytotoxicity, dose response, cytotoxicity control for MgcRacGAP inhibitor project (AID 624300); assay type: functional
[14] = molecular target: T5, Rac GTPase-activating protein 1 (Homo sapiens, UniProt Q9H0H5); experiment: MgcRacGAP GTPase-activating activity inhibitors, confirmation, biochemical, ADP Hunter fluorescence, primary and confirmatory (AID 624330); assay type: functional
T5 sequence (Q9H0H5 whole entry): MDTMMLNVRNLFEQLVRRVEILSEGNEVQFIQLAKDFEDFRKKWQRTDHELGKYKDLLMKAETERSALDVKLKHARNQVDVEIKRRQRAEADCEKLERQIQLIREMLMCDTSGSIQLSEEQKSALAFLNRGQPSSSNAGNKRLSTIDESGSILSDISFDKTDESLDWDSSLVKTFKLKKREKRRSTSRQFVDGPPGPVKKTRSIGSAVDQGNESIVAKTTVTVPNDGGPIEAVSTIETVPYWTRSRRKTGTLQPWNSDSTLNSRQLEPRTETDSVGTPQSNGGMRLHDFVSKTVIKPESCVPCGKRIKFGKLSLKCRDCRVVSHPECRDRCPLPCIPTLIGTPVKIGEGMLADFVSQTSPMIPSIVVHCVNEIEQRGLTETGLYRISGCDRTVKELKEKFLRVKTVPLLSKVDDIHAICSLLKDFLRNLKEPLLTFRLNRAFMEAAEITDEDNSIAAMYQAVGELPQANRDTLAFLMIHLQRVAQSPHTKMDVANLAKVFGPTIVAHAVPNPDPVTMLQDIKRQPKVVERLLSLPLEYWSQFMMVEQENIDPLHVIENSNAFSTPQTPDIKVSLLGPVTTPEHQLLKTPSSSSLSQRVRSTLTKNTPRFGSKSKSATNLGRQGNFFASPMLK

Streptokinase A = molecular target: T6, Streptokinase A (Streptococcus pyogenes serotype M1, UniProt P10520); experiment: S. pyogenes streptokinase expression inhibitors, potency, dose response, plasminogen activation absorbance, OD405 (AID 1914); assay type: functional, Streptococcus pyogenes M1 GAS;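 also: secreted streptokinase activity via plasminogen activation per viability signal from cell pellet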
T6 sequence (P10520 whole entry): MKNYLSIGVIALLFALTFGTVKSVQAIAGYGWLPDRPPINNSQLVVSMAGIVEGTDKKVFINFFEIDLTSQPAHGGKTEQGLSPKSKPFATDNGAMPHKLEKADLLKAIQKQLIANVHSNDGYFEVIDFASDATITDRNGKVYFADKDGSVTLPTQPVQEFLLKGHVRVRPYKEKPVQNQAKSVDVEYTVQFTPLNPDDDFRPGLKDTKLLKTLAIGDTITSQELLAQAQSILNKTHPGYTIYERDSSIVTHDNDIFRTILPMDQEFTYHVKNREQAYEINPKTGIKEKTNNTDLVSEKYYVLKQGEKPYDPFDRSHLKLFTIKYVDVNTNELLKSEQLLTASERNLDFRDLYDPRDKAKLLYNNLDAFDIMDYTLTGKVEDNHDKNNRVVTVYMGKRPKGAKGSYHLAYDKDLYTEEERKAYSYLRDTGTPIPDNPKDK

Streptococcus = experiment: Group A Streptococcus viability loss, dose response, counter-screen for streptokinase expression inhibitor project, luminescence, BacTiterGlo (AID 1915); assay type: functional, organism-based;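 also: potency for reduction of bacterial viability or growth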
[15] = molecular target: SWI/SNF-related matrix-associated actin-dependent regulator of chromatin subfamily A member 2 (Homo sapiens, UniProt P51531); experiment: Luminescence-based cell-based high throughput dose response assay to identify activators of the function of SWI/SNF related, matrix associated, actin dependent regulator of chromatin, subfamily a, member 2 (SMARCA2, BRM).; assay type: functional
[16] = Counterscreen for activators of the function of SWI/SNF related, matrix associated, actin dependent regulator of chromatin, subfamily a, member 2 (SMARCA2, BRM): Luminescence-based cell-based high throughput dose response assay to identify non-selective compounds using the VP16 reporter assay.; assay type: functional
[17] = molecular target: T7, DNA repair protein RAD52 homolog (Homo sapiens, UniProt P43351); assay type: functional, biochemical
T7 sequence (P43351 whole entry): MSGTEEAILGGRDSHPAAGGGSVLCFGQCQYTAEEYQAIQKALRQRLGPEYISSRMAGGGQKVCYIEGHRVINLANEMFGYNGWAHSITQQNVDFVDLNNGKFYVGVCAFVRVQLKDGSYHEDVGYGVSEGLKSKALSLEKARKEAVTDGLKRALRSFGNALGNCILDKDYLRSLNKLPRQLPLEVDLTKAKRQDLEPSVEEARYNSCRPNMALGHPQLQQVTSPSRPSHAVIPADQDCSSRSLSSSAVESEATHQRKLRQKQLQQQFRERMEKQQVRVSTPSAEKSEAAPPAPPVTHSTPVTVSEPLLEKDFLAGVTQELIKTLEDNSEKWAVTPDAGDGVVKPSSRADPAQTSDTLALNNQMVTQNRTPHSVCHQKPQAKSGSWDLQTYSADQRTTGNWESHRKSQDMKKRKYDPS

Aminopeptidase N = molecular target: T8, Aminopeptidase N (Plasmodium falciparum FcB1/Columbia, UniProt O96935); experiment: P. falciparum M1AAP inhibitors, biochemical, fluorogenic H-Leu-NHMec substrate, 1536-well (AID 1445); parameters: species or system Plasmodium falciparum 3D7, 3D7
T8 sequence (O96935 whole entry): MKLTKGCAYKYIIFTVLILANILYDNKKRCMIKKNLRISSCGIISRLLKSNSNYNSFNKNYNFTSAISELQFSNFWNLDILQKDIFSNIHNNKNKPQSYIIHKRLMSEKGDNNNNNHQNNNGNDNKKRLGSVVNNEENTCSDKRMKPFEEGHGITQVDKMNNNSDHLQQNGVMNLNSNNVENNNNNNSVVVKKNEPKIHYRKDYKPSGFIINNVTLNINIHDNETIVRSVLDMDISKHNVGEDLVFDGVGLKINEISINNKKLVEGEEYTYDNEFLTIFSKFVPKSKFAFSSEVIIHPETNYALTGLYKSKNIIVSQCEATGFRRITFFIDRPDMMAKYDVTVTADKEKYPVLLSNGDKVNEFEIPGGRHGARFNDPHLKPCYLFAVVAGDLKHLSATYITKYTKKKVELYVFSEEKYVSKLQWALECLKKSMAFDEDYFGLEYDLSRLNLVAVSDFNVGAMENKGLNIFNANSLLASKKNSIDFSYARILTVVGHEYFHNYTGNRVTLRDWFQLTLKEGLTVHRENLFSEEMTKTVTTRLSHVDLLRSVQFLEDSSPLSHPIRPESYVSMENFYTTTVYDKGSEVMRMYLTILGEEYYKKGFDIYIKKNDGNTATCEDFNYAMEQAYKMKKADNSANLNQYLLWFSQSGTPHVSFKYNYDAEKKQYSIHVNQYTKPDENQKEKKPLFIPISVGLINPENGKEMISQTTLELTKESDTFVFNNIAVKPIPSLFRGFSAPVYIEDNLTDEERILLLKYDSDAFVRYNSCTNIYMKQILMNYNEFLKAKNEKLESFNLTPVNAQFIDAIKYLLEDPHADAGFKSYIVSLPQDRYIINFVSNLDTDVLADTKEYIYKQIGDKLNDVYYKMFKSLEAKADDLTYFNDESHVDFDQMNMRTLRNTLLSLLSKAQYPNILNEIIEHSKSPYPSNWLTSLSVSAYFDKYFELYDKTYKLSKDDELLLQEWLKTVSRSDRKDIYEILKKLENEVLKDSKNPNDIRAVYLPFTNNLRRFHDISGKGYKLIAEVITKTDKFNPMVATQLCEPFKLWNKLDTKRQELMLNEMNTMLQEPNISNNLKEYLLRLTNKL

Vero [18] = experiment: cells; assay type: functional, cell-based; conditions: Chlorocebus sabaeus

T4 sequence (P63165 whole entry): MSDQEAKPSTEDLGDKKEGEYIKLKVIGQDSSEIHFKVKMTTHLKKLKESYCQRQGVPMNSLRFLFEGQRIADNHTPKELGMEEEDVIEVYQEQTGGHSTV
Sequence of SWI/SNF-related matrix-associated actin-dependent regulator of chromatin subfamily A member 2 (P51531 whole entry): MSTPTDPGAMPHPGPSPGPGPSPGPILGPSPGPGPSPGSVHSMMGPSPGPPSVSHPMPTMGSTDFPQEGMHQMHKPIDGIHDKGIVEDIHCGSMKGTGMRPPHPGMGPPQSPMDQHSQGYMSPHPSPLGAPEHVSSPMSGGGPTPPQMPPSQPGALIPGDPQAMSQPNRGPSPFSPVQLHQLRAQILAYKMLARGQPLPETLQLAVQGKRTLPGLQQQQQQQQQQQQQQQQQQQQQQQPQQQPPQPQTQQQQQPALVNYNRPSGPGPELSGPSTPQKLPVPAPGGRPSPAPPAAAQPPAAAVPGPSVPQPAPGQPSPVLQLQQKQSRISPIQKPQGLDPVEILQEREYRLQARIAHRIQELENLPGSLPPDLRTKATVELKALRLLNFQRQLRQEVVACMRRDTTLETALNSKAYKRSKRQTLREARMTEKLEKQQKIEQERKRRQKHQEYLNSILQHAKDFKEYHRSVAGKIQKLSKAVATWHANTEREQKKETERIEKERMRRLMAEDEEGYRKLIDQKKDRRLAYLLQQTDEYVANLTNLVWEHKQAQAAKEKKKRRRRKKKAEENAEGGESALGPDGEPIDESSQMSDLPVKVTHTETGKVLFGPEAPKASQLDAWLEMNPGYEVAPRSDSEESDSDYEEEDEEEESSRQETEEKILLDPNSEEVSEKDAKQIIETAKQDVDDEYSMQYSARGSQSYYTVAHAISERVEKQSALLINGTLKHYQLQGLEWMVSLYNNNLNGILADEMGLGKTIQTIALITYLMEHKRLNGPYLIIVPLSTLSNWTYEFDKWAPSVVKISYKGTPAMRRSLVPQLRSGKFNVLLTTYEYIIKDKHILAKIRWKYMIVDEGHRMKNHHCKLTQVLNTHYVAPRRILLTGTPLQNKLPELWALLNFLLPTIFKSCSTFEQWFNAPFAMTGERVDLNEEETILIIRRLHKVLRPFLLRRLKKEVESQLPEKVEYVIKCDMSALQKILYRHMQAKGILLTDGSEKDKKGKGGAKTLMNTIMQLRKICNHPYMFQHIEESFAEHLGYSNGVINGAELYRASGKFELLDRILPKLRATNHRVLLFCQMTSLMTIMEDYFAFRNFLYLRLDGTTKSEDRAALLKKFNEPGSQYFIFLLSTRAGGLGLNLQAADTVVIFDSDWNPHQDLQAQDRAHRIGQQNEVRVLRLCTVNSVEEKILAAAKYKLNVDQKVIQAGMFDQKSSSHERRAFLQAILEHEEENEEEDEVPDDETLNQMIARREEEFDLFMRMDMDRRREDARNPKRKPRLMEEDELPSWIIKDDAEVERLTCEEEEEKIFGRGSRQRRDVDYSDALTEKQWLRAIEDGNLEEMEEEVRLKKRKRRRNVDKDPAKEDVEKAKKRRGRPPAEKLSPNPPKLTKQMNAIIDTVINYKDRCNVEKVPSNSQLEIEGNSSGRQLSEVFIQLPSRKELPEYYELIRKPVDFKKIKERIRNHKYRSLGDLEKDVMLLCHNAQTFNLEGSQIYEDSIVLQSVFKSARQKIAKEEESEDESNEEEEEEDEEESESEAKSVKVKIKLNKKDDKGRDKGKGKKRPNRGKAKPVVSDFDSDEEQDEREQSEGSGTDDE

Cc1cc(C)c2nc(NC(=O)c3ccco3)sc2c1
IC50 (cells [1]): > 67.5 µM (inactive) | IC50 [2]: > 0.278 µM (active)

CCOc1ccccc1-c1nnc(CS(=O)(=O)c2ccccc2)o1
AC50 (Vero [3]): 23.9 µM (active)

CCN(CC)c1nc2cc(C)ccc2cc1/C=C(\C#N)C(N)=O
IC50 [4]: 20 µM (inactive) | IC50 [5]: 17.3 µM (active)

COc1cccc(N2CN(CCc3ccccc3)CN=C2S)c1
EC50 (cells [6]): > 29.9 µM (inactive) | IC50 (cells [7]): > 29.9 µM (inactive) | IC50 [8]: 3.52 µM (active) | EC50 [9]: 0.758 µM (active)

O=C(O)c1cccc(S(=O)(=O)NNc2ccccc2C(F)(F)F)c1
IC50 [10]: 9.06 µM (active) | IC50 [11]: > 66.6 µM (inactive) | AC50 [12]: 10.8 µM (active)

CN(C(=O)C1CCC(=O)N(Cc2cccc(F)c2)C1)C1CCCCC1 (stereo not given)
IC50 (cells [1]): > 67.6 µM (inactive) | IC50 [2]: > 67.6 µM (inactive)

Fc1ccc(CNc2ccc(N3CCN(Cc4ccccc4)CC3)cc2)cc1
CC50 [13]: 98.7 µM (active) | IC50 [14]: 15.4 µM (active)

O=C(Nc1cccc(-c2nc3ccccc3[nH]2)c1)c1ccc(C(=O)Nc2cccc(-c3nc4ccccc4[nH]3)c2)cc1
IC50 [10]: 6.29 µM (active) | EC50 (Streptokinase A): > 150 µM (not active) | IC50 [11]: > 66.6 µM (inactive) | EC50 (Streptococcus): 61.9 µM (active)

COc1ccc(-c2nc3c(C(=O)NCCN(C)C)cccc3c3ccccc23)cc1
EC50 [15]: > 91.2 µM (inactive) | EC50 [16]: > 91.2 µM (inactive) | AC50 [17]: 2.89 µM (active)

O=C(C[C@H]1C(=O)N(Cc2ccccc2)C[C@@H]1Cc1ccccc1)Nc1ccc(Br)cc1
AC50 (Vero [3]): 31.4 µM (active)

Cn1ccc(C(=O)N/N=C/c2c[nH]c3ccccc23)n1
EC50 [15]: > 91.2 µM (inactive) | EC50 [16]: > 91.2 µM (inactive)

O=C(N/N=C(\CC(=O)c1cccs1)C(F)(F)F)c1ccncc1
IC50 (Aminopeptidase N): 48.8 µM (active) | IC50 [4]: 10.1 µM (active) | IC50 [5]: 38 µM (inactive) | IC50 (Vero [18]): 24.8 µM (active)
